Oligonucleotides are given in HELM: sugar(base)linkage, 5' to 3'; d 2'-deoxyribose, r ribose, m 2'-O-methylribose, p phosphate. ss, as = sense and antisense strand
Each substance was assayed against UBE2K (assay: reporter assay of Huesken 2005). Conditions: siRNA.
Also: test concentration or dose not given here.

“RNA1{r(A)p.r(U)p.r(A)p.r(G)p.r(C)p.r(A)p.r(G)p.r(G)p.r(A)p.r(C)p.r(C)p.r(U)p.r(C)p.r(C)p.r(A)p.r(G)p.r(A)p.r(C)p.r(A)p.d(T)p.d(T)}|RNA2{r(U)p.r(G)p.r(U)p.r(C)p.r(U)p.r(G)p.r(G)p.r(A)p.r(G)p.r(G)p.r(U)p.r(C)p.r(C)p.r(U)p.r(G)p.r(C)p.r(U)p.r(A)p.r(U)p.d(T)p.d(T)}$$$RNA1{StrandType:ss}|RNA2{StrandType:as}$” was tested. Which normalised inhibition (eCFP-eYFP dual reporter) did it give?
Its normalised inhibition (eCFP-eYFP dual reporter) is 69.8%.

For “RNA1{r(A)p.r(U)p.r(C)p.r(A)p.r(A)p.r(U)p.r(G)p.r(G)p.r(G)p.r(C)p.r(A)p.r(G)p.r(C)p.r(U)p.r(G)p.r(C)p.r(A)p.r(A)p.r(U)p.d(T)p.d(T)}|RNA2{r(A)p.r(U)p.r(U)p.r(G)p.r(C)p.r(A)p.r(G)p.r(C)p.r(U)p.r(G)p.r(C)p.r(C)p.r(C)p.r(A)p.r(U)p.r(U)p.r(G)p.r(A)p.r(U)p.d(C)p.d(T)}$$$RNA1{StrandType:ss}|RNA2{StrandType:as}$”, which normalised inhibition (eCFP-eYFP dual reporter) is on record?
Its normalised inhibition (eCFP-eYFP dual reporter) is 48.4%.

For “RNA1{r(A)p.r(U)p.r(C)p.r(C)p.r(U)p.r(A)p.r(A)p.r(U)p.r(A)p.r(U)p.r(U)p.r(A)p.r(G)p.r(U)p.r(U)p.r(C)p.r(C)p.r(G)p.r(U)p.d(T)p.d(T)}|RNA2{r(A)p.r(C)p.r(G)p.r(G)p.r(A)p.r(A)p.r(C)p.r(U)p.r(A)p.r(A)p.r(U)p.r(A)p.r(U)p.r(U)p.r(A)p.r(G)p.r(G)p.r(A)p.r(U)p.d(G)p.d(C)}$$$RNA1{StrandType:ss}|RNA2{StrandType:as}$”, which normalised inhibition (eCFP-eYFP dual reporter) is on record?
Its normalised inhibition (eCFP-eYFP dual reporter) is 53.2%.

How did the normalised inhibition (eCFP-eYFP dual reporter) turn out when “RNA1{r(A)p.r(U)p.r(C)p.r(U)p.r(U)p.r(G)p.r(U)p.r(A)p.r(G)p.r(A)p.r(U)p.r(G)p.r(A)p.r(G)p.r(A)p.r(A)p.r(U)p.r(U)p.r(U)p.d(T)p.d(T)}|RNA2{r(A)p.r(A)p.r(A)p.r(U)p.r(U)p.r(C)p.r(U)p.r(C)p.r(A)p.r(U)p.r(C)p.r(U)p.r(A)p.r(C)p.r(A)p.r(A)p.r(G)p.r(A)p.r(U)p.d(C)p.d(T)}$$$RNA1{StrandType:ss}|RNA2{StrandType:as}$” was run?
The normalised inhibition (eCFP-eYFP dual reporter) was 81.3%.

How did the normalised inhibition (eCFP-eYFP dual reporter) turn out when “RNA1{r(A)p.r(U)p.r(G)p.r(A)p.r(C)p.r(U)p.r(C)p.r(U)p.r(C)p.r(C)p.r(G)p.r(C)p.r(A)p.r(C)p.r(G)p.r(G)p.r(U)p.r(A)p.r(U)p.d(T)p.d(T)}|RNA2{r(A)p.r(U)p.r(A)p.r(C)p.r(C)p.r(G)p.r(U)p.r(G)p.r(C)p.r(G)p.r(G)p.r(A)p.r(G)p.r(A)p.r(G)p.r(U)p.r(C)p.r(A)p.r(U)p.d(T)p.d(G)}$$$RNA1{StrandType:ss}|RNA2{StrandType:as}$” was run?
The normalised inhibition (eCFP-eYFP dual reporter) was 85.7%.

“RNA1{r(A)p.r(U)p.r(G)p.r(U)p.r(U)p.r(C)p.r(A)p.r(A)p.r(A)p.r(C)p.r(A)p.r(G)p.r(A)p.r(C)p.r(A)p.r(G)p.r(C)p.r(U)p.r(C)p.d(T)p.d(T)}|RNA2{r(G)p.r(A)p.r(G)p.r(C)p.r(U)p.r(G)p.r(U)p.r(C)p.r(U)p.r(G)p.r(U)p.r(U)p.r(U)p.r(G)p.r(A)p.r(A)p.r(C)p.r(A)p.r(U)p.d(T)p.d(T)}$$$RNA1{StrandType:ss}|RNA2{StrandType:as}$” was tested. Which normalised inhibition (eCFP-eYFP dual reporter) did it give?
The normalised inhibition (eCFP-eYFP dual reporter) was 64.6%.

Which normalised inhibition (eCFP-eYFP dual reporter) does the source give for “RNA1{r(A)p.r(U)p.r(U)p.r(A)p.r(A)p.r(A)p.r(G)p.r(U)p.r(A)p.r(G)p.r(A)p.r(U)p.r(C)p.r(U)p.r(U)p.r(G)p.r(U)p.r(A)p.r(G)p.d(T)p.d(T)}|RNA2{r(C)p.r(U)p.r(A)p.r(C)p.r(A)p.r(A)p.r(G)p.r(A)p.r(U)p.r(C)p.r(U)p.r(A)p.r(C)p.r(U)p.r(U)p.r(U)p.r(A)p.r(A)p.r(U)p.d(T)p.d(T)}$$$RNA1{StrandType:ss}|RNA2{StrandType:as}$” here?
The normalised inhibition (eCFP-eYFP dual reporter) was 45.8%.

How did the normalised inhibition (eCFP-eYFP dual reporter) turn out when “RNA1{r(A)p.r(U)p.r(U)p.r(G)p.r(G)p.r(C)p.r(A)p.r(G)p.r(C)p.r(U)p.r(G)p.r(C)p.r(A)p.r(G)p.r(A)p.r(G)p.r(C)p.r(C)p.r(A)p.d(T)p.d(T)}|RNA2{r(U)p.r(G)p.r(G)p.r(C)p.r(U)p.r(C)p.r(U)p.r(G)p.r(C)p.r(A)p.r(G)p.r(C)p.r(U)p.r(G)p.r(C)p.r(C)p.r(A)p.r(A)p.r(U)p.d(A)p.d(G)}$$$RNA1{StrandType:ss}|RNA2{StrandType:as}$” was run?
The normalised inhibition (eCFP-eYFP dual reporter) was 85%.

Which normalised inhibition (eCFP-eYFP dual reporter) does the source give for “RNA1{r(A)p.r(U)p.r(U)p.r(G)p.r(U)p.r(C)p.r(A)p.r(U)p.r(U)p.r(G)p.r(C)p.r(A)p.r(A)p.r(G)p.r(C)p.r(A)p.r(C)p.r(U)p.r(A)p.d(T)p.d(T)}|RNA2{r(U)p.r(A)p.r(G)p.r(U)p.r(G)p.r(C)p.r(U)p.r(U)p.r(G)p.r(C)p.r(A)p.r(A)p.r(U)p.r(G)p.r(A)p.r(C)p.r(A)p.r(A)p.r(U)p.d(A)p.d(A)}$$$RNA1{StrandType:ss}|RNA2{StrandType:as}$” here?
The normalised inhibition (eCFP-eYFP dual reporter) was 85.4%.

For “RNA1{r(C)p.r(A)p.r(C)p.r(C)p.r(A)p.r(U)p.r(A)p.r(U)p.r(G)p.r(A)p.r(A)p.r(G)p.r(G)p.r(A)p.r(G)p.r(G)p.r(A)p.r(A)p.r(G)p.d(T)p.d(T)}|RNA2{r(C)p.r(U)p.r(U)p.r(C)p.r(C)p.r(U)p.r(C)p.r(C)p.r(U)p.r(U)p.r(C)p.r(A)p.r(U)p.r(A)p.r(U)p.r(G)p.r(G)p.r(U)p.r(G)p.d(T)p.d(G)}$$$RNA1{StrandType:ss}|RNA2{StrandType:as}$”, which normalised inhibition (eCFP-eYFP dual reporter) is on record?
The normalised inhibition (eCFP-eYFP dual reporter) was 69.5%.

“RNA1{r(C)p.r(A)p.r(G)p.r(A)p.r(C)p.r(A)p.r(C)p.r(A)p.r(C)p.r(C)p.r(A)p.r(U)p.r(A)p.r(U)p.r(G)p.r(A)p.r(A)p.r(G)p.r(G)p.d(T)p.d(T)}|RNA2{r(C)p.r(C)p.r(U)p.r(U)p.r(C)p.r(A)p.r(U)p.r(A)p.r(U)p.r(G)p.r(G)p.r(U)p.r(G)p.r(U)p.r(G)p.r(U)p.r(C)p.r(U)p.r(G)p.d(G)p.d(A)}$$$RNA1{StrandType:ss}|RNA2{StrandType:as}$” was tested. Which normalised inhibition (eCFP-eYFP dual reporter) did it give?
Its normalised inhibition (eCFP-eYFP dual reporter) is 72.8%.

How did the normalised inhibition (eCFP-eYFP dual reporter) turn out when “RNA1{r(C)p.r(A)p.r(G)p.r(A)p.r(G)p.r(C)p.r(C)p.r(A)p.r(G)p.r(A)p.r(U)p.r(G)p.r(A)p.r(U)p.r(C)p.r(C)p.r(A)p.r(C)p.r(A)p.d(T)p.d(T)}|RNA2{r(U)p.r(G)p.r(U)p.r(G)p.r(G)p.r(A)p.r(U)p.r(C)p.r(A)p.r(U)p.r(C)p.r(U)p.r(G)p.r(G)p.r(C)p.r(U)p.r(C)p.r(U)p.r(G)p.d(C)p.d(A)}$$$RNA1{StrandType:ss}|RNA2{StrandType:as}$” was run?
Its normalised inhibition (eCFP-eYFP dual reporter) is 82.5%.

Which normalised inhibition (eCFP-eYFP dual reporter) does the source give for “RNA1{r(C)p.r(A)p.r(G)p.r(G)p.r(A)p.r(U)p.r(G)p.r(C)p.r(U)p.r(G)p.r(U)p.r(A)p.r(G)p.r(U)p.r(A)p.r(G)p.r(C)p.r(A)p.r(A)p.d(T)p.d(T)}|RNA2{r(U)p.r(U)p.r(G)p.r(C)p.r(U)p.r(A)p.r(C)p.r(U)p.r(A)p.r(C)p.r(A)p.r(G)p.r(C)p.r(A)p.r(U)p.r(C)p.r(C)p.r(U)p.r(G)p.d(T)p.d(G)}$$$RNA1{StrandType:ss}|RNA2{StrandType:as}$” here?
The normalised inhibition (eCFP-eYFP dual reporter) was 93%.

With “RNA1{r(C)p.r(A)p.r(G)p.r(U)p.r(A)p.r(C)p.r(A)p.r(A)p.r(A)p.r(C)p.r(A)p.r(A)p.r(A)p.r(A)p.r(U)p.r(C)p.r(C)p.r(C)p.r(G)p.d(T)p.d(T)}|RNA2{r(C)p.r(G)p.r(G)p.r(G)p.r(A)p.r(U)p.r(U)p.r(U)p.r(U)p.r(G)p.r(U)p.r(U)p.r(U)p.r(G)p.r(U)p.r(A)p.r(C)p.r(U)p.r(G)p.d(A)p.d(T)}$$$RNA1{StrandType:ss}|RNA2{StrandType:as}$” as the substance, how does the normalised inhibition (eCFP-eYFP dual reporter) read?
Its normalised inhibition (eCFP-eYFP dual reporter) is 70.1%.

Which normalised inhibition (eCFP-eYFP dual reporter) does the source give for “RNA1{r(C)p.r(C)p.r(A)p.r(G)p.r(A)p.r(A)p.r(A)p.r(C)p.r(A)p.r(U)p.r(A)p.r(C)p.r(C)p.r(C)p.r(A)p.r(U)p.r(U)p.r(U)p.r(A)p.d(T)p.d(T)}|RNA2{r(U)p.r(A)p.r(A)p.r(A)p.r(U)p.r(G)p.r(G)p.r(G)p.r(U)p.r(A)p.r(U)p.r(G)p.r(U)p.r(U)p.r(U)p.r(C)p.r(U)p.r(G)p.r(G)p.d(T)p.d(A)}$$$RNA1{StrandType:ss}|RNA2{StrandType:as}$” here?
The normalised inhibition (eCFP-eYFP dual reporter) was 72.4%.

“RNA1{r(C)p.r(C)p.r(A)p.r(G)p.r(A)p.r(U)p.r(G)p.r(A)p.r(U)p.r(C)p.r(C)p.r(A)p.r(C)p.r(A)p.r(G)p.r(G)p.r(A)p.r(U)p.r(G)p.d(T)p.d(T)}|RNA2{r(C)p.r(A)p.r(U)p.r(C)p.r(C)p.r(U)p.r(G)p.r(U)p.r(G)p.r(G)p.r(A)p.r(U)p.r(C)p.r(A)p.r(U)p.r(C)p.r(U)p.r(G)p.r(G)p.d(C)p.d(T)}$$$RNA1{StrandType:ss}|RNA2{StrandType:as}$” was tested. Which normalised inhibition (eCFP-eYFP dual reporter) did it give?
The normalised inhibition (eCFP-eYFP dual reporter) was 66.7%.

With “RNA1{r(C)p.r(C)p.r(C)p.r(G)p.r(A)p.r(A)p.r(A)p.r(U)p.r(G)p.r(U)p.r(U)p.r(C)p.r(A)p.r(A)p.r(A)p.r(C)p.r(A)p.r(G)p.r(A)p.d(T)p.d(T)}|RNA2{r(U)p.r(C)p.r(U)p.r(G)p.r(U)p.r(U)p.r(U)p.r(G)p.r(A)p.r(A)p.r(C)p.r(A)p.r(U)p.r(U)p.r(U)p.r(C)p.r(G)p.r(G)p.r(G)p.d(A)p.d(T)}$$$RNA1{StrandType:ss}|RNA2{StrandType:as}$” as the substance, how does the normalised inhibition (eCFP-eYFP dual reporter) read?
The normalised inhibition (eCFP-eYFP dual reporter) was 92.7%.

How did the normalised inhibition (eCFP-eYFP dual reporter) turn out when “RNA1{r(C)p.r(C)p.r(G)p.r(C)p.r(A)p.r(C)p.r(G)p.r(G)p.r(U)p.r(A)p.r(U)p.r(U)p.r(A)p.r(U)p.r(U)p.r(G)p.r(U)p.r(C)p.r(A)p.d(T)p.d(T)}|RNA2{r(U)p.r(G)p.r(A)p.r(C)p.r(A)p.r(A)p.r(U)p.r(A)p.r(A)p.r(U)p.r(A)p.r(C)p.r(C)p.r(G)p.r(U)p.r(G)p.r(C)p.r(G)p.r(G)p.d(A)p.d(G)}$$$RNA1{StrandType:ss}|RNA2{StrandType:as}$” was run?
The normalised inhibition (eCFP-eYFP dual reporter) was 63.3%.

How did the normalised inhibition (eCFP-eYFP dual reporter) turn out when “RNA1{r(C)p.r(C)p.r(G)p.r(G)p.r(U)p.r(U)p.r(U)p.r(A)p.r(U)p.r(C)p.r(A)p.r(C)p.r(U)p.r(A)p.r(A)p.r(A)p.r(A)p.r(U)p.r(A)p.d(T)p.d(T)}|RNA2{r(U)p.r(A)p.r(U)p.r(U)p.r(U)p.r(U)p.r(A)p.r(G)p.r(U)p.r(G)p.r(A)p.r(U)p.r(A)p.r(A)p.r(A)p.r(C)p.r(C)p.r(G)p.r(G)p.d(A)p.d(C)}$$$RNA1{StrandType:ss}|RNA2{StrandType:as}$” was run?
Its normalised inhibition (eCFP-eYFP dual reporter) is 89.7%.

With “RNA1{r(C)p.r(C)p.r(U)p.r(A)p.r(A)p.r(U)p.r(A)p.r(U)p.r(U)p.r(A)p.r(G)p.r(U)p.r(U)p.r(C)p.r(C)p.r(G)p.r(U)p.r(C)p.r(A)p.d(T)p.d(T)}|RNA2{r(U)p.r(G)p.r(A)p.r(C)p.r(G)p.r(G)p.r(A)p.r(A)p.r(C)p.r(U)p.r(A)p.r(A)p.r(U)p.r(A)p.r(U)p.r(U)p.r(A)p.r(G)p.r(G)p.d(A)p.d(T)}$$$RNA1{StrandType:ss}|RNA2{StrandType:as}$” as the substance, how does the normalised inhibition (eCFP-eYFP dual reporter) read?
The normalised inhibition (eCFP-eYFP dual reporter) was 74.9%.
